Source: patent US20100298141A1, “SUBSTITUTED PYRIDINE N-OXIDE HERBICIDES” (E. I. DU PONT DE NEMOURS AND COMPANY, priority 2007, published 2010)

Legend:
corn [1] = test: Test A pre-/postemergence greenhouse test; assay type: in vivo, Zea mays; conditions: for Plant response rating, Corn: 0 to 100 scale where 0 is no effect and 100 is complete control; for Corn plant response rating: 0 to 100 scale
In short: (§1)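 Visual injury ratings against untreated controls, taken roughly ten days after treatment in greenhouse. Plants were sprayed postemergence at one- to two-leaf stage (2–10 cm tall); at the same time, seeded loam/sand soil received a directed preemergence spray. Formulation: non-phytotoxic solvent mixture with surfactant.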

wheat = test: Test C pre-/postemergence test; assay type: in vivo, Triticum aestivum
Description: (§2) Seeds of plant species selected from blackgrass (Alopecurus myosuroides), downy brome (Bromus tectorum), green foxtail (Setaria viridis), Italian ryegrass (Lolium multiflorum), wheat (Triticum aestivum), wild oat (Avena fatua), catchweed bedstraw (Galium aparine), Russian thistle (Salsola kali), […] (Cynodon dactylon), Surinam grass (Brachiaria decumbens), cocklebur (Xanthium strumarium), corn (Zea mays), crabgrass (Digitaria sanguinalis), woolly cupgrass (Eriochloa villosa), giant foxtail (Setaria faberii), Goosegrass (Eleusin indica), johnsongrass (Sorghum halepense), kochia (Kochia scoparia), lambsquarters (Chenopodium album), morningglory (Ipomoea coccinea), eastern black nightshade (Solanum ptycanthum), yellow nutsedge (Cyperus esculentus), pigweed (Amaranthus retroflexus), common ragweed (Ambrosia elation), soybean (Glycine max), common (oilseed) sunflower (Helianthus annuus), and velvetleaf (Abutilon theophrasti) were planted and treated preemergence with test chemicals formulated in a non-phytotoxic solvent mixture which included a surfactant. At the same time, plants selected from these crop and weed species and also winter barley (Hordeum vulgare), canarygrass (Phalaris minor), and chickweed (Stellaria media) were treated with postemergence applications of some of the test chemicals formulated in the same manner. Plants ranged in height from 2 to 18 cm (1- to 4-leaf stage) for postemergence treatments. […] At time of treatment, test pots were flooded to 3 cm above the soil surface, treated by application of test compounds directly to the paddy water, and then maintained at that water depth for the duration of the test. […] A dash (-) response means no test result.

rice = test: Test C flooded paddy test; assay type: in vivo, Oryza sativa; conditions: Flood
In short: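 Compound was added to standing water 3 cm above soil, flood maintained, and plants held in a greenhouse before visual scoring against controls at 13 to 15 days.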

[2] = system: common (oilseed) sunflower; test: Test C pre-/postemergence test; assay type: in vivo, Helianthus annuus
Description: as §2

corn [3] = test: Test C pre-/postemergence test; assay type: in vivo, Zea mays
Description: as §2

bermudagrass = test: Test C pre-/postemergence test; assay type: in vivo, Cynodon dactylon
Description: as §2

redroot pigweed = test: Test A pre-/postemergence greenhouse test; assay type: in vivo, Amaranthus retroflexus; conditions: for Plant response rating, Pigweed: 0 to 100 scale where 0 is no effect and 100 is complete control; for Pigweed plant response rating: 0 to 100 scale
In short: as §1

morningglory [4] = test: Test C pre-/postemergence test; assay type: in vivo, Ipomoea coccinea
Description: as §2

kochia = test: Test C pre-/postemergence test; assay type: in vivo, Kochia scoparia
Description: as §2

johnsongrass = test: Test C pre-/postemergence test; assay type: in vivo, Sorghum halepense
Description: as §2

morningglory [5] = test: Test A pre-/postemergence greenhouse test; assay type: in vivo, Ipomoea spp.; conditions: for Plant response rating, Morningglory: 0 to 100 scale where 0 is no effect and 100 is complete control; for Morningglory plant response rating: 0 to 100 scale
In short: as §1

yellow nutsedge = test: Test C pre-/postemergence test; assay type: in vivo, Cyperus esculentus
Description: as §2

wild oat = test: Test C pre-/postemergence test; assay type: in vivo, Avena fatua
Description: as §2

giant foxtail = test: Test C pre-/postemergence test; assay type: in vivo, Setaria faberii
Description: as §2

Italian ryegrass = test: Test C pre-/postemergence test; assay type: in vivo, Lolium multiflorum
Description: as §2

cocklebur = test: Test C pre-/postemergence test; assay type: in vivo, Xanthium strumarium; conditions: Postemergence; for Plant response rating, Cocklebur: scale 0 to 100, 0 no effect, 100 complete control
Description: as §2

[6] = Postemergence, 500 g ai/ha, 0 is no effect, 100 is complete control
[7] = Preemergence, 125 g ai/ha, 0 no effect, 100 complete control
[8] = 62 g ai/ha, Preemergence, scale 0 to 100
[9] = 125 g ai/ha, preemergence, scale 0 (no effect) to 100 (complete control)
[10] = Preemergence, 31 g ai/ha, scale 0 to 100 (0 no effect, 100 complete control)
[11] = preemergence, 250 g ai/ha, scale 0 (no effect) to 100 (complete control)
[12] = 62 g ai/ha, scale 0 to 100 (0 no effect, 100 complete control)
[13] = 250 g ai/ha, scale 0 to 100, 0 no effect, 100 complete control, 13 to 15 days
[14] = Postemergence, 125 g ai/ha, scale 0 to 100, 0 no effect, 100 complete control
[15] = Postemergence, 250 g ai/ha, scale 0 to 100, 0 no effect, 100 complete control
[16] = Postemergence, 62 g ai/ha, scale 0 to 100, 0 no effect, 100 complete control

CCn1nc(C(F)(F)F)c(CS(=O)(=O)c2cccc[n+]2[O-])c1OCC(F)(F)F [Compound 63]
Plant response rating, Corn (corn [1]; Postemergence, 125 g ai/ha): 30 | Corn plant response rating (corn [1]; [6]): 60 | Corn plant response rating (corn [1]; [7]): 0 | Plant response rating, Corn (corn [1]; Preemergence, 500 g ai/ha): 50 | Wheat plant response rating (wheat; [8]): 20 | Wheat plant response rating (wheat; [9]): 60 | Plant response rating, Wheat (wheat; [10]): 0 | Wheat plant response rating (wheat; [11]): 85 | Plant response rating, Rice (rice; [12]): 30 | Plant response rating, Rice (rice; [13]): 35 | Sunflower plant response rating [2, 8]: 60 | Sunflower plant response rating [2, 9]: 80 | Plant response rating, Sunflower [2, 10]: 10 | Sunflower plant response rating [2, 11]: 85 | Corn plant response rating (corn [3]; [8]): 85 | Corn plant response rating (corn [3]; [9]): 90 | Plant response rating, Corn (corn [3]; [10]): 5 | Corn plant response rating (corn [3]; [11]): 100 | Bermudagrass plant response rating (bermudagrass; 62 g ai/ha, Preemergence, scale 0 to 100 (0 no effect, 100 complete control)): 100 | Bermudagrass plant response rating (bermudagrass; [9]): 100 | Plant response rating, Bermudagrass (bermudagrass; [10]): 100 | Bermudagrass plant response rating (bermudagrass; [11]): 100 | Plant response rating, Pigweed (redroot pigweed; Postemergence, 125 g ai/ha): 50 | Pigweed plant response rating (redroot pigweed; [6]): 80 | Pigweed plant response rating (redroot pigweed; [7]): 70 | Plant response rating, Pigweed (redroot pigweed; Preemergence, 500 g ai/ha): 100 | Morningglory plant response rating (morningglory [4]; [8]): 0 | Morningglory plant response rating (morningglory [4]; [9]): 0 | Plant response rating, Morningglory (morningglory [4]; [10]): 0 | Morningglory plant response rating (morningglory [4]; [11]): 0 | Kochia plant response rating (kochia; [8]): 100 | Kochia plant response rating (kochia; [9]): 100 | Plant response rating, Kochia (kochia; [10]): 100 | Kochia plant response rating (kochia; [11]): 100 | Johnsongrass plant response rating (johnsongrass; [8]): 85 | Plant response rating, Johnsongrass (johnsongrass; [10]): 85 | Johnsongrass plant response rating (johnsongrass; [11]): 98 | Plant response rating, Morningglory (morningglory [5]; Postemergence, 125 g ai/ha): 30 | Morningglory plant response rating (morningglory [5]; [6]): 60 | Morningglory plant response rating (morningglory [5]; [7]): 20 | Plant response rating, Morningglory (morningglory [5]; Preemergence, 500 g ai/ha): 70 | Nutsedge, Yellow plant response rating (yellow nutsedge; [8]): 50 | Nutsedge, Yellow plant response rating (yellow nutsedge; [9]): 55 | Plant response rating, Nutsedge, Yellow (yellow nutsedge; [10]): 0 | Nutsedge, Yellow plant response rating (yellow nutsedge; [11]): 98 | Oat, Wild plant response rating (wild oat; [8]): 60 | Oat, Wild plant response rating (wild oat; [9]): 85 | Plant response rating, Oat, Wild (wild oat; [10]): 50 | Oat, Wild plant response rating (wild oat; [11]): 95 | Foxtail, Giant plant response rating (giant foxtail; [8]): 100 | Foxtail, Giant plant response rating (giant foxtail; [9]): 100 | Plant response rating, Foxtail, Giant (giant foxtail; [10]): 100 | Foxtail, Giant plant response rating (giant foxtail; [11]): 100 | Ryegrass, Italian plant response rating (Italian ryegrass; [8]): 50 | Ryegrass, Italian plant response rating (Italian ryegrass; [9]): 60 | Plant response rating, Ryegrass, Italian (Italian ryegrass; [10]): 0 | Ryegrass, Italian plant response rating (Italian ryegrass; [11]): 100

Cn1nc(C(F)(F)F)c(C[S+]([O-])c2cccc[n+]2[O-])c1OCC(F)(F)C(F)(F)F (stereo not shown) [Compound 78]
Plant response rating, Corn (corn [1]; Postemergence, 125 g ai/ha): 20 | Corn plant response rating (corn [1]; [6]): 40 | Corn plant response rating (corn [1]; [7]): 30 | Plant response rating, Corn (corn [1]; Preemergence, 500 g ai/ha): 90 | Plant response rating (0 to 100), Wheat (wheat; Postemergence, 31 g ai/ha): 0 | Plant response rating (0 to 100), Wheat (wheat; Postemergence, 62 g ai/ha): 0 | Plant response rating, Wheat (wheat; [14]): 10 | Plant response rating, Wheat (wheat; [15]): 10 | Plant response rating, Rice (rice; [12]): 10 | Plant response rating, Rice (rice; [13]): 70 | Plant response rating (0 to 100), Corn (corn [3]; Postemergence, 31 g ai/ha): 0 | Plant response rating, Corn (corn [3]; [16]): 0 | Plant response rating, Corn (corn [3]; [14]): 0 | Plant response rating, Corn (corn [3]; [15]): 20 | Plant response rating (0 to 100), Bermudagrass (bermudagrass; Postemergence, 31 g ai/ha): 0 | Plant response rating, Bermudagrass (bermudagrass; [16]): 0 | Plant response rating, Bermudagrass (bermudagrass; [14]): 0 | Plant response rating, Bermudagrass (bermudagrass; [15]): 0 | Plant response rating, Pigweed (redroot pigweed; Postemergence, 125 g ai/ha): 50 | Pigweed plant response rating (redroot pigweed; [6]): 60 | Pigweed plant response rating (redroot pigweed; [7]): 10 | Plant response rating, Pigweed (redroot pigweed; Preemergence, 500 g ai/ha): 100 | Plant response rating (0 to 100), Morningglory (morningglory [4]; Postemergence, 31 g ai/ha): 0 | Plant response rating, Morningglory (morningglory [4]; [16]): 0 | Plant response rating, Morningglory (morningglory [4]; [14]): 0 | Plant response rating, Morningglory (morningglory [4]; [15]): 0 | Plant response rating (0 to 100), Cocklebur (cocklebur; 31 g ai/ha): 0 | Plant response rating, Cocklebur (cocklebur; 62 g ai/ha): 0 | Plant response rating, Cocklebur (cocklebur; 125 g ai/ha): 0 | Plant response rating, Cocklebur (cocklebur; 250 g ai/ha): 0 | Plant response rating (0 to 100), Kochia (kochia; Postemergence, 31 g ai/ha): 0 | Plant response rating, Kochia (kochia; [16]): 0 | Plant response rating, Kochia (kochia; [14]): 0 | Plant response rating, Kochia (kochia; [15]): 0 | Plant response rating (0 to 100), Johnsongrass (johnsongrass; Postemergence, 31 g ai/ha): 0 | Plant response rating, Johnsongrass (johnsongrass; [16]): 0 | Plant response rating, Johnsongrass (johnsongrass; [14]): 0 | Plant response rating, Johnsongrass (johnsongrass; [15]): 45 | Plant response rating, Morningglory (morningglory [5]; Postemergence, 125 g ai/ha): 30 | Morningglory plant response rating (morningglory [5]; [6]): 60 | Morningglory plant response rating (morningglory [5]; [7]): 20 | Plant response rating, Morningglory (morningglory [5]; Preemergence, 500 g ai/ha): 80 | Plant response rating (0 to 100), Nutsedge, Yellow (yellow nutsedge; Postemergence, 31 g ai/ha): 0 | Plant response rating, Nutsedge, Yellow (yellow nutsedge; [16]): 0 | Plant response rating, Nutsedge, Yellow (yellow nutsedge; [14]): 0 | Plant response rating, Nutsedge, Yellow (yellow nutsedge; [15]): 0 | Plant response rating (0 to 100), Oat, Wild (wild oat; Postemergence, 31 g ai/ha): 0 | Plant response rating, Oat, Wild (wild oat; [16]): 0 | Plant response rating, Oat, Wild (wild oat; [14]): 0 | Plant response rating, Oat, Wild (wild oat; [15]): 0 | Plant response rating (0 to 100), Foxtail, Giant (giant foxtail; Postemergence, 31 g ai/ha): 0 | Plant response rating, Foxtail, Giant (giant foxtail; [16]): 0 | Plant response rating, Foxtail, Giant (giant foxtail; [14]): 45 | Plant response rating, Foxtail, Giant (giant foxtail; [15]): 45 | Plant response rating (0 to 100), Ryegrass, Italian (Italian ryegrass; Postemergence, 31 g ai/ha): 0 | Plant response rating (0 to 100), Ryegrass, Italian (Italian ryegrass; Postemergence, 62 g ai/ha): 0 | Plant response rating, Ryegrass, Italian (Italian ryegrass; [14]): 30 | Plant response rating, Ryegrass, Italian (Italian ryegrass; [15]): 30
